Experimental data from US11237155B2, “Screening methods using olfactory receptors and novel compounds identified using the same” (MARS, INCORPORATED, priority 2016, dated 2022).

Tests used:
Type in all cases: cell-based
Cat OR5A1 = assay: CNG chAMPion assay, OR_9 (OR5A1), cat ortholog; conditions: cat OR5A1, phase 3
Protocol: chAMPion (CNG channel) assay. HEK293/CNG/nat-Clytin/RTP1 s endo cells were transiently transfected with plasmids encoding the respective OR and were seeded at 20,000 cells/well in 25 μL/well complete growth medium in poly-D-lysine coated black, clear-bottom 384 MTPs.
Data were analyzed with the Screenworks® software (Molecular Devices, version 4.0.0.30). Luminescence values (in RLU) were exported as maximum RLU between 10 s and 40 s. In addition to using raw values, the data were also normalized to background signals (wells containing buffer only) and expressed as “Fold change” (mean value (n=2)/mean value of buffer wells (n=2)). Data analysis and plotting of graphs was carried out using Excel (Microsoft) and GraphPad Prism (GraphPad Software, Inc.).

Human OR5A1 = target: T1, Human OR5A1 (Homo sapiens, UniProt Q8NGJ0); assay: CRE-NanoLuc luciferase assay, OR_9 (OR5A1), human ortholog; conditions: human OR5A1, phase 3
T1 construct: expressed in transfected cells; host or cells: HEK293 PEAKrapid/RTP1s endo (reporter cell line A)
T1 sequence (Q8NGJ0 1-315): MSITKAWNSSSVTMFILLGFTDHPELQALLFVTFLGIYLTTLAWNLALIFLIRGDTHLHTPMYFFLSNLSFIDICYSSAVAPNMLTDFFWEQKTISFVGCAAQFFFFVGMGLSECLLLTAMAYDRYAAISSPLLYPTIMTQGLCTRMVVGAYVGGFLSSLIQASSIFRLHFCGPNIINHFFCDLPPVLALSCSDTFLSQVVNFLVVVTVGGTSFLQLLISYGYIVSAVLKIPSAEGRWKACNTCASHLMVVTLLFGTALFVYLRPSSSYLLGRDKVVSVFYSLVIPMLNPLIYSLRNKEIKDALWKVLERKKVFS

Dog OR5A1 = assay: CNG chAMPion assay, OR_9 (OR5A1), dog ortholog; conditions: dog OR5A1, phase 3
Source text: This example refers to the functional expression of different feline and canine olfactory receptors (ORs). 20 OR sequences were selected, where 10 sequences have feline origins and the remaining 10 have canine origins. These ORs were subcloned into a modified expression vector suitable for the transient, functional expression of ORs. The transiently expressed receptors were then stimulated with various concentrations of different odorants aiming to deorphanize the feline and canine ORs. […] Functional expression of the different OR sets were transient in reporter cell line A or B. The transiently transfected ORs were stimulated with 3 concentrations (n=4) of different odorants (at least 3).
chAMPion (CNG channel) assay. […]
Twenty-four hours later, the cell medium was removed manually and cells were incubated in 20 μL/well coelenterazine (11 μM) in Tyrode buffer with 0 mM calcium for 3.5 h at 37° C. Plates were then read in a luminescence plate reader (FLIPR^TETRA, Molecular Devices) with the following camera settings: exposure time: 0.533 s, maximum gain. Luminescence was recorded for 1 min after addition of 10 μL/well compounds (3× solutions prepared in Tyrode buffer with 0 mM calcium), followed by an incubation period of 30 min at 37° C. Luminescence was again recorded for 1 min after addition of 20 μL/well Tyrode buffer with 10 mM CaCl2. […]

Row | receptor response (dose-response, fold change) (Cat OR5A1) | receptor response (dose-response, fold change) (Human OR5A1) | EC50 (rank among the four compounds) (Dog OR5A1) | SMILES | Emax (rank among the four compounds) (Dog OR5A1)
1 | weaker responses | – | – | CCCCCOC(C)=O [amyl acetate, Amyl acetate] | –
2 | strong response | responds | lowest EC50 | CC(=O)/C=C/C1=C(C)CCCC1(C)C [β-ionone, beta-Ionone] | highest Emax

Row | SMILES | receptor response (dose-response, fold change) (Cat OR5A1) | receptor response (dose-response, fold change) (Human OR5A1) | EC50 (rank among the four compounds) (Dog OR5A1) | Emax (rank among the four compounds) (Dog OR5A1)
3 | CC(C)=CCCC(C)=CC=O [citral, Citral] | no response | – | – | –
